Measured values taken from patent US5880092A, “Conformationally stabilized cell adhesion peptides” (La Jolla Cancer Research Foundation, priority 1995, dated 1999).
Where no end group is shown, it is not given here. [ ]: non-standard residue; d: D form. Pen = CC(C)(S)[C@H](N)C(=O)O

Columns and labels:
[1] = system: attachment of normal rat kidney cells to fibronectin; experiment: Cell adhesion assay: inhibition of attachment of normal rat kidney cells to fibronectin; format: cell-based; details: fibronectin from human plasma coated at 12 μg/ml, peptide 0 to 10.0 mM, FIG. 2
Procedure: (§1) Fibronectin and vitronectin were purified from human plasma according to the methods of Ruoslahti et al., (1982) Meth. Enz. 82:803; and Hayman et al., (1983) PNAS 80:4003, respectively, both of which are incorporated herein by reference. The adhesion of normal rat kidney cells to fibronectin and vitronectin was assayed as described in Ruoslahti et al., Meth. Enz. supra. Briefly, 0.1 ml solution of fibronectin or vitronectin at a concentration of 12 μg/ml in 0.1M PBS was placed in each well of 96-well plastic microtiter plates and left for 2 hours at room temperature. The unattached protein was removed by washing three times with PBS.
(§2) One day before the assay, a confluent culture of normal rat kidney cells was split 1:2 using standard tissue culture trypsin. The cells were washed three times with PBS, pH 7.2. […] Before the last centrifugation, a sample was taken and cell numbers and viability by trypan blue exclusion are determined. […]
(§3) The unattached cells were removed simply by removing the medium and washing the wells. […] The cells were then fixed with 3% paraformaldehyde in PBS and stained with 1% toluidine blue, paraformaldehyde in PBS, and attached cells counted. Their number was determined using a cell counter that is capable of counting cells attached to a surface (Dynatech Laboratories, Alexandria, Va.). […]

[2] = system: attachment of normal rat kidney cells to vitronectin; experiment: Cell adhesion assay: inhibition of attachment of normal rat kidney cells to vitronectin; format: cell-based; details: vitronectin from human plasma coated at 12 μg/ml, peptide 0 to 10.0 mM, FIG. 2
Procedure: as §1, §2, §3

In the case of “G[Pen]GRGDSPC (cysteine pairing not given here) [linear peptide]”, the “inhibition of attachment to fibronectin” value [1] is reported as “inhibited attachment of cells to both substrates at relatively similar concentrations” and the “inhibition of attachment to vitronectin” value [2] is reported as “inhibited attachment of cells to both substrates at relatively similar concentrations”.
